“Also recorded” adds a separate entry of the source.
Columns and labels:
[1] = tested on: liver biochemical parameters in the serum of mice (AST, ALT, Gamma GT, Alkaline phosphatase); assay: Liver blood enzyme analysis in serum; assay type: in vivo; conditions: 4 days after the last administration of CCl4
Method: The effect of oral administration of compound 34 (GED) and the specific CB2 agonist (JWH-133) was evaluated on different liver biochemical parameters in the serum of mice: hepatic enzymes ([…]), Gamma GT and the Alkaline phosphatase.

C57bl6 mice [2] = assay: DSS intestinal fibrosis study: inflammation level by histology (May-Grunwald-Giemsa); assay type: in vivo; conditions: colon, MGG staining; DSS vehicle 3.77±0.80, control 0.50±0.33
Method: Rings of the transverse part of the colon were sampled (post mortem) and fixed in 4% formaldehyde and embedded in paraffin for histological analysis. Sections (4 μm) were stained with May-Grunwald-Giemsa and a multiparametric histological scoring (0 to 18) was performed blindly by two investigators. This staining allowed the quantification of inflammation. Histological grades, reflecting the inflammation level, were assigned based on the intensity of cellular infiltrate in the mucosa, its extension in sub-mucosa layers and the presence of epithelial lesions (see Table 5).

C57bl6 mice [3] = assay: DSS intestinal fibrosis study (Ex. 5/6): colon ratio weight/size; assay type: in vivo
Method: This example describes an experiment to evaluate the effect of compound 34 on intestinal fibrosis. Chronic colitis was induced in C57bl6 mice by 3 cycles of 2.5% DSS (40,000-50,000 MW, TdB consultancy AB, Sweden) dissolved in sterile drinking water for 5 days followed by 7 days of regular drinking water.
Compound 34 was used at its optimal dosage (30 mM) and administered by oral gavage daily after the second cycle of DSS and until euthanasia. Mice receiving DSS were checked twice a week for development of colitis by monitoring body weight. Euthanasia of mice was performed one week after the third cycle of DSS (see FIG. 5). Evaluation of the size and weight of the colon was evaluated post mortem.
Intestinal fibrosis is characterized by a shortening and thickening of the colon and adherences. The measure of the ratio weight/size of the colon is an indicator of the level of inflammation and fibrosis. […] Compound 34 causes a 34% reduction in the profibrotic effect of DSS leading to a significant decrease ratio weight/size of the colon of 38.13±7.82 vs 44.98±6.31 (p<0.05) compared to DSS mice receiving the vehicle (FIG. 6A). Accordingly, it reduces the morphological signs of fibrosis such as the shortening and the thickening of the colon and it decreases the collagen deposit in the colon (FIG. 6B).

IL-13 = assay: DSS chronic colitis (Ex. 7): Western blot, IL-13; assay type: in vivo, mice; conditions: percentage of optical density vs control group, normalized with GAPDH; DSS 189.5%±28.71%
Method: (§1) 0.5 cm of frozen colonic samples were cut and mechanically homogenized in RIPA Buffer containing 50 mMTrisHCl pH 7.6, 150 mMNaCl, 1.5 mM MgCl2, 5 mM EDTA, 1% Triton-X and 10% Glycerol, supplemented with 100 mM Sodium Fluoride (NaF), 2 mM Sodium Orthovanadate (Na3VO4), 10 mM Sodium Pyrophosphate (NaPPi), 1 mMphenylmethanesulphone (PMSF) and a classical protease-inhibitor cocktail containing 10 μg/mL Leupeptin and Aprotinin.
(§2) 30 μg of protein for each sample were separated by PAGE and electroblotted. 100% pure Nitrocellulose membranes were incubated (according with a specific protocol for each antibody) with primary antibodies directed against TGF-β1, CTGF, α-SMA, Collagen-I and GAPDH (purchased from Abcam, Cambridge, UK; 1:1000 for 2 h at RT), and IL-13 (purchased from Antibodies online; 1:1000 for 2 h at RT) diluted in 5% non fat-milk in 0.1% TBS-t. […] Optical density of target bands was determined using a computer-assisted densitometer and the ImageJ public domain software (W. S., Rasband, ImageJ, U. S. National Institutes of Health, Bethesda, MD; http://rsb.info.nih.gov/ij/, 1997-2011). Tissue levels were expressed as units of Optical Density (OD) per quantity of total proteins, normalizing with internal control GAPDH and the results were expressed as percentage of control groups.

C57BL/6 mice = assay: DSS chronic colitis (Ex. 7): macroscopic colonic findings; assay type: in vivo
Method: Finally, seven days after the last DSS cycle administration, the animals of each group were sacrificed by cervical dislocation under deep CO2 anaesthesia and undergone to laparotomy. The colon were visualized and rapidly excised. The length of the whole colon-rectum and the weight of the distal 8 cm of colon-rectum were measured.
The macroscopic colonic lesions including dilation, thickness and stenosis were scored by an independent observer, unaware of the mice treatment. Tissue specimens from the colon were dissected and immediately frozen or fixed in fresh 4% formaldehyde (FA)/PBS solution for 3 h at room temperature followed by the standard procedure for paraffin embedding. Paraffin embedded tissues transversally sectioned at 3 μm were subject to Hematoxylin/Eosin staining, to assess the inflammatory degree, and Masson trichrome to better assess connective tissue and fibrosis. The stained sections were then blindly observed under an Olympus BX51 Light Microscope (Olympus, Optical Co. Ltd., Tokyo, Japan) by two pathologists which have performed the histological score evaluating: i. presence of ulcers (0=absent, 1=little ulcers, 2=big ulcers); ii. the inflammatory degree (0=absent 1=mild, 2=moderate and 3=severe); iii. depth of lesions (0=absent, 1=lesions extending in the submucosa, 2=lesions in the muscolarispropria and 3=lesions in the serosa); iv. degree of fibrosis (0=absent 1=mild, 2=moderate and 3=severe). The degree of intestinal inflammation was assessed according to the density and extent of chronic inflammatory infiltrate, loss of goblet cells, and bowel wall thickening. A total microscopic score will be obtained as sum of all scores (maximum score possible=[…]).
At no stage frank rectal bleeding or rectal prolapse were observed. The mice were sacrificed on day 15 and day 30, respectively, and the colon was subjected to macroscopic evaluation by measuring of colon weight (referred to the last 8 cm of the distal large bowel) and colon length and by observing the presence of adhesions, strictures, dilatation, thickness that was scored as 0 if absent; 1 if mild or moderate; and 2 if severe. The total macroscopic score was calculated as sum of all these score.

Collagen I-III = assay: DSS chronic colitis (Ex. 7): Western blot, Collagen I-III; assay type: in vivo, mice; conditions: percentage of the mean of control group, normalized with GAPDH; DSS 284.4%±63.8%
Method: as §1, §2

[4] = chronic DSS colitis, GED 30 mg/kg oral daily, mean ± SEM

## COC(Cc1ccc(N)cc1)C(=O)O (racemic) [Compound 34, (±)-2-methoxy-3-(4′-aminophenyl) propionic acid]
[1]
  enhancement of blood liver enzymes (AST, ALT, Alk P) / liver toxicity: not associated with any enhancement of blood liver enzymes; also recorded: without liver toxicity
C57bl6 mice [2]
  inflammation level, histological score (0 to 18): 2.18±0.48
C57bl6 mice [3]; compound 34 30 mM 200 uL oral gavage daily day 13-36, DSS vehicle 44.98±6.31, control 20.11±3.91
  ratio weight/size of the colon: 38.13±7.82
C57bl6 mice [3]; compound 34 30 mM oral gavage
  reduction in the profibrotic effect of DSS (colon ratio weight/size): 34%
IL-13
  IL-13 expression level (Western blot): 88.88%±14.01%
C57BL/6 mice; Ex. 7, GED 30 mg/kg oral daily
  reduction respect to the profibrotic effect of DSS (colon ratio weight/size): 26%
C57BL/6 mice; Ex. 7, GED 30 mg/kg oral daily, DSS 44.98±6.31, control 20.11±3.91
  ratio weight/size of the colon: 38.13±7.82
C57BL/6 mice; [4]
  Adhesions (score 0-2): 0.12 ± 0.1^¥¥
  Colon length: 7.092 ± 0.16**/ ^
  Colon weight/body weight ratio: 0.27 ± 0.012**/^¥¥
  Dilation (score 0-2): 1.12 ± 0.185**/^¥¥
  Stenosis (score 0-2): 0.32 ± 0.114**/^¥
  Thickness (score 0-2): 0.48 ± 0.108**/^¥
C57BL/6 mice; chronic DSS colitis, GED 30 mg/kg oral daily, mean ± SEM, DSS 3.112 ± 0.31
  Total macroscopic score: 2.02 ± 0.26**/^¥¥
C57BL/6 mice; distal 8 cm of colon-rectum, chronic DSS colitis, GED 30 mg/kg oral daily, mean ± SEM
  Colon weight: 0.269 ± 0.007 ^
Collagen I-III
  Collagen I-III expression level (Western blot): 90.75%±19.9%
